Where two headings read alike, the source gives them in different places. Each block holds one compound with its values, some of them ahead of it.
Legend:
[1] = tested on: prostate cancer (5 cell lines); assay: CellTiter-Glo Viability Assay, prostate cancer; type: cell-based; conditions: Homo sapiens
[2] = tested on: liver cancer (3 cell lines); assay: CellTiter-Glo Viability Assay, liver cancer; type: cell-based; conditions: Homo sapiens, inhibition of cancer cell proliferation
[3] = tested on: pancreatic cancer (8 cell lines); assay: CellTiter-Glo Viability Assay, pancreatic cancer; type: cell-based; conditions: Homo sapiens, inhibition of cancer cell proliferation
[4] = tested on: haematopoietic & lymphoid tumors (13 cell lines); assay: CellTiter-Glo Viability Assay, haematopoietic & lymphoid tumors; type: cell-based; conditions: Homo sapiens, inhibition of cancer cell proliferation
[5] = tested on: colorectal cancer (6 cell lines); assay: CellTiter-Glo Viability Assay, colorectal cancer; type: cell-based; conditions: Homo sapiens, inhibition of cancer cell proliferation
[6] = tested on: ovarian cancer (4 cell lines); assay: CellTiter-Glo Viability Assay, ovarian cancer; type: cell-based; conditions: Homo sapiens, inhibition of cancer cell proliferation
[7] = tested on: BT-549; assay: CellTiter-Glo Viability Assay, breast cancer; type: cell-based; conditions: Homo sapiens, 96 h; BT-549, breast cancer, four days; read-out: EC50
[8] = tested on: ZR-75-1; assay: CellTiter-Glo Viability Assay, breast cancer; type: cell-based; conditions: Homo sapiens, 96 h; ZR-75-1, breast cancer, four days; read-out: EC50
[9] = tested on: CAMA1; assay: CellTiter-Glo Viability Assay, breast cancer; type: cell-based; conditions: Homo sapiens, CAMA-1, 96 h; CAMA1, breast cancer, four days; read-out: EC50
[10] = tested on: HCC1599; assay: CellTiter-Glo Viability Assay, breast cancer; type: cell-based; conditions: Homo sapiens, 96 h; HCC1599, breast cancer, four days; read-out: EC50
[11] = tested on: DU4475; assay: CellTiter-Glo Viability Assay, breast cancer; type: cell-based; conditions: Homo sapiens, DU-4475, 96 h; DU4475, breast cancer, four days; read-out: EC50
[12] = tested on: MCF7; assay: CellTiter-Glo Viability Assay, breast cancer; type: cell-based; conditions: Homo sapiens, 96 h; MCF7, breast cancer, four days; read-out: EC50
[13] = tested on: MDA-MB-231-Luc; assay: CellTiter-Glo Viability Assay, breast cancer; type: cell-based; conditions: Homo sapiens, 96 h; MDA-MB-231-Luc, breast cancer, four days; read-out: EC50
[14] = tested on: T47D; assay: CellTiter-Glo Viability Assay, breast cancer; type: cell-based; conditions: Homo sapiens, 96 h, breast cancer, four days, read-out: EC50
[15] = tested on: lung cancer (4 cell lines); assay: CellTiter-Glo Viability Assay, lung cancer; type: cell-based; conditions: Homo sapiens, inhibition of cancer cell proliferation
[16] = molecular target: CLK3 (Homo sapiens, UniProt P49761); assay: CLK3 kinase activity assay (Z-lyte, Ser/Thr 18 peptide)
[17] = tested on: all 50 cell lines; assay: CellTiter-Glo Viability Assay, average across all cell lines; type: cell-based; conditions: Homo sapiens; across all 50 cell lines; read-out: average EC50 for inhibition of cancer cell proliferation
Procedure, shortened: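 Cancer cell lines of several tumour types plated at 300-3,000 cells/well and exposed to compound in duplicate for four days at 37° C, 5% CO2, with DMSO-treated controls. Viability read by CellTiter-Glo luminescence (ATP content); EC50 derived from dose-response curves.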

[18] = molecular target: T1, CLK2 (Homo sapiens, UniProt P49760); assay: CLK2 kinase activity assay (Z-lyte, Ser/Thr 6 peptide); type: biochemical; conditions: recombinant CLK2 kinase, ATP 60 μM; read-out: EC50
T1 construct: purchased Thermo Fisher (Life Technologies), Z'-LYTE Kinase Assay Kits
Method: All reactions were performed in duplicate.

[19] = DU-145, read-out: Prostate cancer EC50 Du-145
[20] = PC-3, PC3 cell line, inhibition of cancer cell proliferation, read-out: Prostate cancer EC50 PC3
[21] = 22Rv1 cell line, inhibition of cancer cell proliferation, read-out: Prostate cancer EC50 22Rv1
[22] = LNCap clone FGC cell line, inhibition of cancer cell proliferation, read-out: Prostate cancer EC50 LNCap clone FGC
[23] = VCaP (Sigma) cell line, inhibition of cancer cell proliferation, read-out: Prostate cancer EC50 VCaP (Sigma)
[24] = SNU-398, SNU398 cell line, read-out: Liver cancer, EC50 SNU398
[25] = HEPG2 cell line, read-out: Liver cancer, EC50 HEPG2
[26] = PLC/PRF/5 cell line, read-out: Liver cancer, EC50 PLC/PRF/5
[27] = BXPC-3, BxPC3 cell line, read-out: Pancreatic cancer, EC50 BxPC3
[28] = CAPAN-1, Capan1 cell line, read-out: Pancreatic cancer, EC50 Capan1
[29] = Capan-2, Capan2 cell line, read-out: Pancreatic cancer, EC50 Capan2
[30] = MIA PaCa-2 cell line, read-out: Pancreatic cancer, EC50 MIA PaCa-2
[31] = PANC 05.04 cell line, read-out: Pancreatic cancer, EC50 PANC 05.04
[32] = PANC-1 cell line, read-out: Pancreatic cancer, EC50 PANC-1
[33] = UPAFII cell line, read-out: Pancreatic cancer, EC50 UPAFII
[34] = DND41, DND-41 cell line, read-out: Haematopoietic & Lymphoid tumors, EC50 (μM) DND-41
[35] = MV4-11, MV-4-11 cell line, read-out: Haematopoietic & Lymphoid tumors, EC50 (μM) MV-4-11
[36] = Rec1, REC-1 cell line, read-out: Haematopoietic & Lymphoid tumors, EC50 (μM) REC-1
[37] = SU-DHL-4, SUDHL4 cell line, read-out: Haematopoietic & Lymphoid tumors, EC50 (μM) SUDHL4
[38] = HL-60 cell line, read-out: Haematopoietic & Lymphoid tumors, EC50 (μM) HL-60
[39] = JM1 cell line, read-out: Haematopoietic & Lymphoid tumors, EC50 (μM) JM1
[40] = JURKAT, Clone E6-1 cell line, read-out: Haematopoietic & Lymphoid tumors, EC50 (μM) JURKAT, Clone E6-1
[41] = JeKo-1 cell line, read-out: Haematopoietic & Lymphoid tumors, EC50 (μM) JeKo-1
[42] = KASUMI-1 cell line, read-out: Haematopoietic & Lymphoid tumors, EC50 (μM) KASUMI-1
[43] = Loucy cell line, read-out: Haematopoietic & Lymphoid tumors, EC50 (μM) Loucy
[44] = MOLT-4 cell line, read-out: Haematopoietic & Lymphoid tumors, EC50 (μM) MOLT-4
[45] = TF-1 cell line, read-out: Haematopoietic & Lymphoid tumors, EC50 (μM) TF-1
[46] = TOLEDO cell line, read-out: Haematopoietic & Lymphoid tumors, EC50 (μM) TOLEDO
[47] = HCT-116, HCT116 cell line, read-out: Colorectal cancer, EC50 (μM) HCT116
[48] = HT-29, HT29 cell line, read-out: Colorectal cancer, EC50 (μM) HT29
[49] = SW-620, SW620 cell line, read-out: Colorectal cancer, EC50 (μM) SW620
[50] = DLD-1 cell line, read-out: Colorectal cancer, EC50 (μM) DLD-1
[51] = SW48 cell line, read-out: Colorectal cancer, EC50 (μM) SW48
[52] = SW480 cell line, read-out: Colorectal cancer, EC50 (μM) SW480
[53] = PA-1, PA1 cell line, read-out: Ovarian cancer, EC50 (μM) PA1
[54] = TOV112D, TOV-112D cell line, read-out: Ovarian cancer, EC50 (μM) TOV-112D
[55] = OV-90 cell line, read-out: Ovarian cancer, EC50 (μM) OV-90
[56] = OVCAR-3 cell line, read-out: Ovarian cancer, EC50 (μM) OVCAR-3
[57] = A-427, A427 cell line, read-out: Lung cancer, EC50 (μM) A427
[58] = HCC78, HCC-78 cell line, read-out: Lung cancer, EC50 (μM) HCC-78
[59] = NCI-H460 cell line, read-out: Lung cancer, EC50 (μM) NCI-H460
[60] = NCI-H522 cell line, read-out: Lung cancer, EC50 (μM) NCI-H522

CLK3, sequence (P49761 whole entry): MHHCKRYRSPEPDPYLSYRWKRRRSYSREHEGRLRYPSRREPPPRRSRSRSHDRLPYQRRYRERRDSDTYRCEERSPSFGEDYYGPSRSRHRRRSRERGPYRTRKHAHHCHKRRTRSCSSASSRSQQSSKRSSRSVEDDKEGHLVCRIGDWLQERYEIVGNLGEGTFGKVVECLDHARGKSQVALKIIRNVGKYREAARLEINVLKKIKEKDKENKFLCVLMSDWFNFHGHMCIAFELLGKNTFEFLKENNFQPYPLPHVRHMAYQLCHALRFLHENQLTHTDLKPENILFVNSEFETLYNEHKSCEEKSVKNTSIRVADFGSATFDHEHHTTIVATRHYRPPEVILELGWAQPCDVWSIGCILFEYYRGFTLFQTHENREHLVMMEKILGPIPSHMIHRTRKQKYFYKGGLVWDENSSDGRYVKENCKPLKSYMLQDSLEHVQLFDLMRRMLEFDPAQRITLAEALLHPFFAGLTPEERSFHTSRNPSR
T1 sequence (P49760 whole entry): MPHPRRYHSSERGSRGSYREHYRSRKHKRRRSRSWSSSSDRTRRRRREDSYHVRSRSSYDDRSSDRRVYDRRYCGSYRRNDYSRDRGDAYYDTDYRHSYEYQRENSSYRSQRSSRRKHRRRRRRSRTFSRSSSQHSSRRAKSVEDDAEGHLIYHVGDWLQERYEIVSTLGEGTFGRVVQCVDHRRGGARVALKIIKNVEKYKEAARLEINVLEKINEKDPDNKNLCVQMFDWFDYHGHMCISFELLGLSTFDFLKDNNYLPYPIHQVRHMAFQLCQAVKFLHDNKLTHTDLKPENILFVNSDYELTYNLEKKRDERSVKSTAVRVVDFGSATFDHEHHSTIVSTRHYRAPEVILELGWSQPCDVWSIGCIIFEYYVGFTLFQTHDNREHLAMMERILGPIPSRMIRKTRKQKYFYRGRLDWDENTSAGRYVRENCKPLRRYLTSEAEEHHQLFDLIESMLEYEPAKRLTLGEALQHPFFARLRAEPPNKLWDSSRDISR

EC50 [1, 19]: 563 nM
EC50 [1, 20]: 394 nM
EC50 [1, 21]: 253 nM
EC50 [1, 22]: 553 nM
EC50 [1, 23]: 612 nM
EC50 [2, 24]: 161 nM
EC50 [2, 25]: 428 nM
EC50 [2, 26]: 1030 nM
EC50 [3, 27]: 1050 nM
EC50 [3, 28]: 228 nM
EC50 [3, 29]: 55 nM
EC50 [3, 30]: 175 nM
EC50 [3, 31]: 226 nM
EC50 [3, 32]: 666 nM
EC50 [3, 33]: 282 nM
EC50 [4, 34]: 0.529 µM
EC50 [4, 35]: 0.077 µM
EC50 [4, 36]: 0.133 µM
EC50 [4, 37]: 0.525 µM
EC50 [4, 38]: 1.24 µM
EC50 [4, 39]: 0.115 µM
EC50 [4, 40]: 1.02 µM
EC50 [4, 41]: 0.141 µM
EC50 [4, 42]: 0.157 µM
EC50 [4, 43]: 0.304 µM
EC50 [4, 44]: 0.689 µM
EC50 [4, 45]: 0.41 µM
EC50 [4, 46]: 0.121 µM
EC50 [5, 47]: 0.193 µM
EC50 [5, 48]: 0.666 µM
EC50 [5, 49]: 0.187 µM
EC50 [5, 50]: 0.376 µM
EC50 [5, 51]: 0.132 µM
EC50 [5, 52]: 0.353 µM
EC50 [6, 53]: 0.27 µM
EC50 [6, 54]: 0.264 µM
EC50 [6, 55]: 0.936 µM
EC50 [6, 56]: 0.1 µM
EC50 [7]: 473 nM
EC50 [8]: 653 nM
EC50 [9]: 345 nM
EC50 [10]: 286 nM
EC50 [11]: 178 nM
EC50 [12]: 853 nM
EC50 [13]: 636 nM
EC50 [14]: 730 nM
EC50 [15, 57]: 0.443 µM
EC50 [15, 58]: 0.997 µM
EC50 [15, 59]: 0.32 µM
EC50 [15, 60]: 0.19 µM
EC50 [16]: 61.1 nM
Compound: COc1ccc(NC(=O)c2n[nH]c3ccc(-c4cncc(CN5CCCCC5)c4)cc23)cn1 [Compound 59]
EC50 [17]: 434 nM

EC50 [18]: 1.9 nM
EC50 [1, 19]: 308 nM
EC50 [1, 20]: 302 nM
EC50 [1, 21]: 194 nM
EC50 [1, 22]: 526 nM
EC50 [1, 23]: 430 nM
EC50 [2, 24]: 88 nM
EC50 [2, 25]: 383 nM
EC50 [2, 26]: 674 nM
EC50 [3, 27]: 451 nM
EC50 [3, 28]: 249 nM
EC50 [3, 29]: 555 nM
EC50 [3, 30]: 141 nM
EC50 [3, 31]: 232 nM
EC50 [3, 32]: 401 nM
EC50 [3, 33]: 203 nM
EC50 [5, 47]: 0.155 µM
EC50 [5, 48]: 0.385 µM
EC50 [5, 49]: 0.13 µM
EC50 [5, 50]: 0.241 µM
EC50 [5, 51]: 0.105 µM
EC50 [5, 52]: 0.16 µM
EC50 [6, 53]: 0.325 µM
EC50 [6, 54]: 0.165 µM
EC50 [6, 55]: 0.486 µM
EC50 [6, 56]: 0.123 µM
EC50 [7]: 272 nM
EC50 [8]: 467 nM
EC50 [9]: 379 nM
EC50 [10]: 73 nM
EC50 [11]: 163 nM
EC50 [12]: 914 nM
EC50 [13]: 374 nM
EC50 [14]: 534 nM
EC50 [15, 57]: 0.29 µM
EC50 [15, 58]: 0.504 µM
EC50 [15, 59]: 0.396 µM
EC50 [15, 60]: 0.144 µM
EC50 [16]: 31.2 nM
Compound: CN(C)CCOc1cc(C(=O)Nc2cc3cc(-c4cnn(C)c4)ccc3cn2)ccn1 [Compound 73]
EC50 [17]: 306 nM

EC50 [18]: 1.6 nM
EC50 [1, 19]: 713 nM
EC50 [1, 20]: 674 nM
EC50 [1, 21]: 525 nM
EC50 [1, 22]: 966 nM
EC50 [1, 23]: 546 nM
EC50 [2, 24]: 132 nM
EC50 [2, 25]: 845 nM
EC50 [2, 26]: 1290 nM
EC50 [3, 27]: 1110 nM
EC50 [3, 28]: 627 nM
EC50 [3, 29]: 1040 nM
EC50 [3, 30]: 272 nM
EC50 [3, 31]: 818 nM
EC50 [3, 32]: 736 nM
EC50 [3, 33]: 381 nM
EC50 [4, 34]: 0.513 µM
EC50 [4, 35]: 0.099 µM
EC50 [4, 36]: 0.164 µM
EC50 [4, 37]: 0.62 µM
EC50 [4, 38]: 1.29 µM
EC50 [4, 39]: 0.177 µM
EC50 [4, 40]: 0.976 µM
EC50 [4, 41]: 0.228 µM
EC50 [4, 42]: 0.363 µM
EC50 [4, 43]: 0.522 µM
EC50 [4, 44]: 0.562 µM
EC50 [4, 45]: 0.897 µM
EC50 [4, 46]: 0.156 µM
EC50 [5, 47]: 0.38 µM
EC50 [5, 48]: 0.674 µM
EC50 [5, 49]: 0.198 µM
EC50 [5, 50]: 0.499 µM
EC50 [5, 51]: 0.182 µM
EC50 [5, 52]: 0.404 µM
EC50 [7]: 655 nM
EC50 [8]: 711 nM
EC50 [9]: 561 nM
EC50 [10]: 512 nM
EC50 [11]: 381 nM
EC50 [12]: 1420 nM
EC50 [13]: 677 nM
EC50 [14]: 888 nM
EC50 [15, 57]: 0.672 µM
EC50 [15, 58]: 1.1 µM
EC50 [15, 59]: 0.856 µM
EC50 [15, 60]: 0.395 µM
EC50 [16]: 14.6 nM
Compound: Cn1ncc(-c2ccc3cnc(NC(=O)c4cccc(CN5CCCC5)c4)cc3c2)c1CN1CCCCC1 [Compound 78]
EC50 [17]: 610 nM

Reference: patent US20220062240A1, “METHODS OF TREATING CANCER USING A CLK INHIBITOR” (BioSplice Therapeutics, Inc., priority 2018, published 2022)
